The source of these data is patent US7462615B2, “Inhibitors of cysteine proteases, the pharmaceutical compositions thereof and their therapeutic applications” (Hybrigenics SA, priority 2005, dated 2008).

The target of this test is T1, USP8 (Homo sapiens, UniProt P40818).
T1 construct: His tag (from vector pFastBac-HT) (N); made in house; host or cells: Sf9 or High Five insect cells (baculovirus)
T1 sequence (P40818 1-1118): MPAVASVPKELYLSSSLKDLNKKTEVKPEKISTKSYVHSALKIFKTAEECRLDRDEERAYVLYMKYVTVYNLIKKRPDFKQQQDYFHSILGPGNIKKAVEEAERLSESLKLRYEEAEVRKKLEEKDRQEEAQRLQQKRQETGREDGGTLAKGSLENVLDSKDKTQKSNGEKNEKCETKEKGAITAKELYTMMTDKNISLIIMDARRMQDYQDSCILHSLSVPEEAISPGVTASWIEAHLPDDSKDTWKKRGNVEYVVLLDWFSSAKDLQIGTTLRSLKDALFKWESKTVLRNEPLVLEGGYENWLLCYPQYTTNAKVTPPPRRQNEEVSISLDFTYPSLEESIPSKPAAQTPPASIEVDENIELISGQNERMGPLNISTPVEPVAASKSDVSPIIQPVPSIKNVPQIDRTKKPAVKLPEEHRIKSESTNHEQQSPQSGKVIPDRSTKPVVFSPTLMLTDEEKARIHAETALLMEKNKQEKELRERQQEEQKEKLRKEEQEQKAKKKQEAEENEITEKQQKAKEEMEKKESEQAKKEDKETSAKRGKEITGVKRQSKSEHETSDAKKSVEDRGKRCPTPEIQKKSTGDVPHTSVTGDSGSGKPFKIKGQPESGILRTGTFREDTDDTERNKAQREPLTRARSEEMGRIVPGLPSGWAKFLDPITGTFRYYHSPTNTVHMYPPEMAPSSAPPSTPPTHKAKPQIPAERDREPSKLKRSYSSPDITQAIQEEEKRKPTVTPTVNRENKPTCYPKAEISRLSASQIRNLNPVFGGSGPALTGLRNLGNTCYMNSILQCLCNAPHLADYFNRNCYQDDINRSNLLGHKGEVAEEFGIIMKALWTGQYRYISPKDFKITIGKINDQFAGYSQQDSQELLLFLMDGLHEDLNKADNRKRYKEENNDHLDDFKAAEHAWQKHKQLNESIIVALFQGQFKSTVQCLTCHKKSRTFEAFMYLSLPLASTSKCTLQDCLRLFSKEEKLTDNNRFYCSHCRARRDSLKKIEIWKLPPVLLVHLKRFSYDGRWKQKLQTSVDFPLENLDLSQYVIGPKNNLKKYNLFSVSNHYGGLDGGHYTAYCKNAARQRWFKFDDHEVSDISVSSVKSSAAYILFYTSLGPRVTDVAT
The test is described as follows: USP8 Activity Assay. Type of test: biochemical. The note with it: 400 nM Ub-AMC; 630 pM enzyme; pH8.8; pre-incubated 30 minutes at 25° C., 60 minutes at 37° C.; sigmoidal fit; read-out: USP 8 (Inhibition of cysteine protease activities). The source says: The cDNA encoding USP8 was obtained by PCR amplification from placenta mRNA. USP8 cDNA was subcloned by PCR into a baculovirus expression vector (pFastBac-HT; Invitrogen). A cDNA encoding a mutated USP8 was generated by mutagenic PCR. The corresponding protein encodes a cysteine to alanine substitution at residue 786. The sequences were ascertained by sequencing of the entire open reading frame. Bacmids encoding USP7 were generated following DH10bac transposition. The corresponding bacmids were transfected into insect cells (Sf9). Viruses were recovered from culture supernatant and amplified twice. Insect cells (Sf9 or High Five; Invitrogen) were infected for 72 hours. Total cell lysates were harvested and lyzed in lysis buffer (Tris HCl 50 mM pH7.6; 0.75% NP40; 500 mM NaCl; 10% glycerol; 1 mM DTT; 10 mM imidazole; Protease Inhibitor Cocktail; AEBSF 20 μg.ml^−1; Aprotinin 10 μg.ml^−1). Proteins were affinity purified on metal affinity resins (Talon Metal affinity resin; BD Biosciences). Bound materials were extensively washed in wash buffer (50 mM Sodium Phosphate pH 7.0; 300 mM NaCl; 10 mM imidazole; 0.5% Triton X-100; 10% glycerol) and eluted from the resin in 250 mM imidazole-containing wash buffer. Proteins were dialyzed in dialysis buffer (Tris HCl pH 7.6 20 mM; NaCl 200 mM; DTT 1 mM; EDTA 1 mM; 10% Glycerol). Proteins purifications were analyzed on 4-12% NuPAGE (Invitrogen).
USP8 was diluted in USP buffer (50 mM Tris HCl; 0.5 mM EDTA; 5 mM DTT; 0.01% Triton X-100; Bovine Serum Albumin 0.05 mg.ml^−1 pH8.8). Compounds stocks (100 mM) were stored at −20° C. in DMSO.
Reactions were performed as duplicates in Black LJL 96 well plates (HE microplates; Molecular Devices; 20 μl final reaction volume). The substrate concentration for USP8 was 400 nM Ub-AMC (Boston Biochem). The concentrations of the enzyme (USP8) in specificity assays was 630 pM. The concentrations were determined in order to perform specificity assays under initial velocities at fixed substrate concentration. Compounds were pre-incubated with enzymes for 30 minutes at 25° C. Reactions were initiated by addition of substrate to the plates containing the enzymes (+/−compounds) diluted in assay buffer. Reactions were incubated for 60 minutes at 37° C. Reactions were stopped by adding acetic acid (100 mM final). Readings were performed on a Pherastar Fluorescent Reader (BMG). λ Emission 380 nm; λ Excitation=460 nm. Data (mean values +/− standard deviation) were analyzed as % of control (no compound) and plotted as percentage versus the Log of the compound concentration using GraphPad (Prism). Data were fitted to a sigmoidal model (variable slope).

Consider `CCc1nnc2nc3c(nn12)C(=O)c1ccccc1-3` [Example 1d/A, 1-Ethyl-2,3,4,10,10a-pentaaza-cyclopenta[b]fluoren-9-one], for which the IC50 was 537 nM.

`CC(C)Cc1nnc2nc3c(nn12)C(=O)c1ccccc1-3` [Example 1g/A, 1-Isobutyl-2,3,4,10,10a-pentaaza-cyclopenta[b]fluoren-9-one]: the IC50 came out at 538 nM.

With `O=C1c2ccccc2-c2nc3nnc(C4CC4)n3nc21` [Example 1j/A, 1-Cyclopropyl-2,3,4,10,10a-pentaaza-cyclopenta[b]fluoren-9-one], the IC50 turned out to be 2500 nM.

Turning to `Cc1nnc2nc3c(nn12)-c1ccc(Cl)cc1C3=O` [Example 3/B, 7-Chloro-3-methyl-1,2,3a, 4,10-pentaaza-cyclopenta[b]fluoren-9-one], the IC50 amounted to 119 nM.

Turning to `Cc1nnc2nc3c(nn12)C(=O)c1ccccc1-3` [Example 1b/A, 1-Methyl-2,3,4,10,10a-pentaaza-cyclopenta[b]fluoren-9-one], the IC50 is 701 nM.

As to `O=C1c2ccccc2-c2nn3c(Cc4ccccc4)nnc3nc21` [Example 1k/B, 3-Benzyl-1,2,3a,4,10-pentaaza-cyclopenta[b]fluoren-9-one], the IC50 was 166 nM.

In the case of `O=C1c2ccccc2-c2nc3nnc(Cc4ccccc4)n3nc21` [Example 1k/A, 1-Benzyl-2,3,4,10,10a-pentaaza-cyclopenta[b]fluoren-9-one], the IC50 turned out to be 663 nM.

For `O=C1c2ccccc2-c2nc3nn(Cc4ccccc4)nc3nc21` [Example 4b, 2-Benzyl-2H-1,2,3,4,10-pentaaza-cyclopenta[b]fluoren-9-one], the IC50 came to 15000 nM.

Turning to `O=C1c2ccccc2-c2nc3nnc(CO)n3nc21` [Example 1h/A, 1-Hydroxymethyl-2,3,4,10,10a-pentaaza-cyclopenta[b]fluoren-9-one], the IC50 was found to be 670 nM.

With `Nc1nnc2nc3c(nn12)-c1ccccc1C3=O` [Example 1c/B, 3-Amino-1,2,3a,4,10-pentaaza-cyclopenta[b]fluoren-9-one], the IC50 was 81 nM.

With `CCCCc1nnc2nc3c(nn12)-c1ccccc1C3=O` [Example 1f/B, 3-Butyl-1,2,3a,4,10-pentaaza-cyclopenta[b]fluoren-9-one], the IC50 was 151 nM.

On to `CCCc1nnc2nc3c(nn12)C(=O)c1ccccc1-3` [Example 1e/A, 1-Propyl-2,3,4,10,10a-pentaaza-cyclopenta[b]fluoren-9-one], for which the IC50 was determined as 952 nM.

As for `Cn1nc2nc3c(nc2n1)-c1ccccc1C3=O` [Example 4a, 2-Methyl-2H-1,2,3,4,10-pentaaza-cyclopenta[b]fluoren-9-one], the IC50 amounted to 10000 nM.

`O=C1c2ccccc2-c2nn3c(CO)nnc3nc21` [Example 1h/B]: the IC50 is 164 nM.

Turning to `CCCCc1nnc2nc3c(nn12)C(=O)c1ccccc1-3` [Example 1f/A, 1-Butyl-2,3,4,10,10a-pentaaza-cyclopenta[b]fluoren-9-one], the IC50 came to 830 nM.

As to `CC(C)Cc1nnc2nc3c(nn12)-c1ccccc1C3=O` [Example 1g/B, 3-Isobutyl-1,2,3a,4,10-pentaaza-cyclopenta[b]fluoren-9-one], the IC50 was determined as 167 nM.

Turning to “6-(7)-Chloro-1-methyl-2,3,4,10,10a-pentaaza-cyclopenta[b]fluoren-9-one [Example 3/A]”, the IC50 came out at 301 nM.

For the compound `Nc1nnc2nc3c(nn12)C(=O)c1ccccc1-3` [Example 1c/A, 1-Amino-2,3,4,10,10a-pentaaza-cyclopenta[b]fluoren-9-one], the IC50 is 840 nM.
